From US20240101548A1, “HYDROXAMATE COMPOUND, PREPARATION METHOD THEREFOR AND APPLICATION THEREOF” (SHENZHEN CHIPSCREEN BIOSCIENCES CO., LTD., priority 2020, published 2024)

Legend:
[1] = system: EPO-induced JAK2 signal pathway; assay: EPO-induced proliferation of UT-7 cells (JAK2 signal); type: cell-based, human; conditions: Homo sapiens, UT7; UT-7 cell proliferation, EPO 10 ng/mL, 72 hours; read-out: Inhibition activity IC50 on EPO-induced JAK2 signal pathway
Method: The cytokine EPO, i.e. erythropoietin, can promote the proliferation and division of erythroid progenitor cells, and the signal pathway induced by EPO coupling with its receptor is mediated by JAK2-STAT5.
Human promegakaryocytic leukemia cell line UT-7 was commercially available from Cell Resource Center, Institute of Basic Medicine, Chinese Academy of Medical Sciences. The culture medium was RPIM1640 containing 10% FBS, and EPO was added for a final concentration of 10 ng/mL.
The inhibition rate of the tested compound on EPO-induced cell proliferation was calculated using Microsoft Excel.
UT-7 cell line was inoculated in 96-well plate with flat bottom at 15000 cells per well, each well was added with 10 ng/mL of human recombinant EPO (Human EPO PEPROTECH 100-64-10UG), along with tested compound respectively for a final concentration of 0, 100, 1000 or 10000 nM. After culture at 37° C. and 5% CO2 for 72 hours, alamarBlue™ Cell Viability Reagent was added to each well following the instructions. After incubation at 37° C. for color reaction, the fluorescence value at Ex530/Em590 was detected using Tecan Spark™ 10M multimode microplate reader.
(§1) The well in which neither compound nor cytokine was added was designated as 00 control well, and the fluorescence value in the wells in which the final concentration of compound was 0 was designated as 100 control. The inhibition activity MC50 ofthe tested compound on JAK2 could be calculated from the inhibition rate ofthe tested compound on EPO-induced cell proliferation at different doses.

[2] = system: IL-2-induced JAK1/JAK3 signal pathway; assay: IL-2-induced proliferation of KHYG-1 cells (JAK1/JAK3 signal); type: cell-based, human; conditions: Homo sapiens; KHYG-1 cell proliferation, IL-2 10 ng/mL, 72 hours; read-out: Inhibition activity IC50 on IL-2-induced JAK1/JAK3 signal pathway
Description: The main physiological function of cytokine IL-2 is to stimulate and maintain the proliferation and differentiation of T cells. Generally, IL-2 dependent T cells cannot survive in in-vitro culture for a long time, but the addition of IL-2 can make them continue to proliferate. The signal pathway induced by IL-2 coupling with its receptor is mediated by JAK1/JAK3-STAT5, so the inhibitor of JAK1 and/or JAK3 can inhibit the proliferation of IL-2 dependent cells.
Human natural killer cell lymphoma cell line KHYG-1 was commercially available from Health Science Research Resources Bank (HSRRB), and relevant culture conditions referred to those from HSRRB.
The inhibition rate of the tested compound on IL-2-induced cell proliferation was calculated using Microsoft Excel.
After culture at 37° C. and 5% CO2 for 72 hours, alamarBlue™ Cell Viability Reagent was added to each well following the instructions.
as §1, with “0%” for “00”, “100%” for “100”, “[…] of the” for “MC50 ofthe”, “JAK1/JAK3” for “JAK2”, “of the” for “ofthe”, “IL-2-induced” for “EPO-induced”

| SMILES | IC50 [1] [µM] | IC50 [2] [µM] |
| --- | --- | --- |
| CONC(=O)c1cnc(NC(=O)C2CC2)cc1Nc1cccc(C2CC2)c1N(C)S(C)(=O)=O [Example 85, 6-(cyclopropylcarboxamido)-4-((3-cyclopropyl-2-(N-methylmethanesulfonamido)phenyl)amino)-N-methoxy nicotinamide] | > 10 | > 10 |
| CONC(=O)c1cnc(Nc2cccc(F)n2)cc1Nc1cccc(C2CC2)c1N(C)S(C)(=O)=O [Example 86] | > 10 | > 10 |
| CONC(=O)c1cnc(NC(=O)C2CC2)cc1Nc1cccc(-c2cnn(C)c2)c1N(C)S(C)(=O)=O [Example 87, 6-(cyclopropylcarboxamido)-N-methoxy-4-((3-(1-methyl-1H-pyrazol-4-yl)-2-(N-methylmethanesulfonamido)phenyl)amino)nicotinamide] | > 10 | > 10 |
| CONC(=O)c1cnc(Nc2cccc(F)n2)cc1Nc1cccc(-c2cnn(C)c2)c1N(C)S(C)(=O)=O [Example 88, 6-((6-fluoropyridin-2-yl)amino)-N-methoxy-4-((3-(1-methyl-1H-pyrazol-4-yl)-2-(N-methylmethanesulfonamido)phenyl)amino)nicotinamide] | > 10 | > 10 |
| CONC(=O)c1cnc(NC(=O)C2CC2)cc1Nc1ccccc1S(C)(=O)=O [Example 89] | > 10 | > 10 |
| CN(c1ccccc1Nc1cc(NC(=O)C2CC2)ncc1C(=O)NOC(C)(C)C)S(C)(=O)=O [Example 91, N-(t-butoxy)-6-(cyclopropylcarboxamido)-4-((2-(N-methylmethanesulfonamido)phenyl)amino)nicotinamide] | > 10 | > 10 |
| CONC(=O)c1cnc(Nc2ccc(C(F)(F)F)cn2)cc1Nc1ccccc1N(C)S(C)(=O)=O [Example 92, N-methoxy-4-((2-(N-methylmethanesulfonamido)phenyl)amino)-6-((5-(trifluoromethyl)pyridin-2-yl)amino)nicotinamide] | > 10 | > 10 |
| CONC(=O)c1cnc(NC(=O)[C@H]2CC2(C)C)cc1Nc1ccc(C2CC2)cc1N(C)S(C)(=O)=O [Example 94, (S)-4-((4-cyclopropyl-2-(N-methylmethanesulfonamido)phenyl)amino)-6-(2,2-dimethylcyclopropyl-1-carboxamido)-N-methoxy nicotinamide] | > 10 | > 10 |
| CCONC(=O)c1cnc(Nc2ccccn2)cc1Nc1cc(F)c(C2CC2)cc1N(C)S(C)(=O)=O [Example 96, 4-((4-cyclopropyl-5-fluoro-2-(N-methylmethanesulfonamido)phenyl)amino)-N-ethoxy-6-(pyridin-2-ylamino)nicotinamide] | > 10 | > 10 |
| CCONC(=O)c1cnc(Nc2cc(C)c(F)cn2)cc1Nc1cc(F)c(C2CC2)cc1N(C)S(C)(=O)=O [Example 99, 4-((4-cyclopropyl-5-fluoro-2-(N-methylmethanesulfonamido)phenyl)amino)-N-ethoxy-6-((5-fluoro-4-methylpyridin-2-yl)amino)nicotinamide] | > 10 | > 10 |
| CONC(=O)c1cnc(Nc2ccc(C#N)cc2)cc1Nc1ccccc1N(C)S(C)(=O)=O [Example 103, 6-((4-cyanophenyl)amino)-N-methoxy-4-((2-(N-methylmethanesulfonamido)phenyl)amino)nicotinamide] | > 10 | > 10 |
| CONC(=O)c1cnc(Nc2ccc(F)cc2)cc1Nc1ccccc1N(C)S(C)(=O)=O [Example 104, 6-((4-fluorophenyl)amino)-N-methoxy-4-((2-(N-methylmethanesulfonamido)phenyl)amino)nicotinamide] | > 10 | > 10 |
| CONC(=O)c1cnc(NC(=O)[C@H]2CC2(C)C)cc1Nc1ccccc1N(C)S(C)(=O)=O [Example 105, (S)-6-(2,2-dimethylcyclopropyl-1-carboxamido)-N-methoxy-4-((2-(N-methylmethanesulfonamido)phenyl)amino)nicotinamide] | > 10 | > 10 |
| CONC(=O)c1cnc(Nc2ccc(C)cn2)cc1Nc1ccc(C)cc1N(C)S(C)(=O)=O [Example 107, N-methoxy-4-((4-methyl-2-(N-methylmethanesulfonamido)phenyl)amino)-6-((5-methylpyridin-2-yl)amino)nicotinamide] | > 10 | > 10 |
| CCONC(=O)c1cnc(Nc2cccc(F)n2)cc1Nc1ccccc1NS(C)(=O)=O [Example 117, N-ethoxy-6-((6-fluoropyridin-2-yl)amino)-4-((2-(methanesulfonamido)phenyl)amino)nicotinamide] | > 10 | > 10 |
| CCONC(=O)c1cnc(NC(=O)C2CC2)cc1Nc1cc(C)c(C2CC2)cc1N(C)S(C)(=O)=O [Example 120, 6-(cyclopropylcarboxamido)-4-((4-cyclopropyl-5-methyl-2-(N-methylmethanesulfonamido)phenyl)amino)-N-ethoxy nicotinamide] | > 10 | > 10 |
| CCONC(=O)c1cnc(Nc2cc(C)nc(C)n2)cc1Nc1cc(C)c(C2CC2)cc1N(C)S(C)(=O)=O [Example 121] | > 10 | > 10 |
| CCONC(=O)c1cnc(Nc2ccc(CO)cn2)cc1Nc1ccc(C2CC2)cc1N(C)S(C)(=O)=O [Example 122, 4-((4-cyclopropyl-2-(N-methylmethanesulfonamido)phenyl)amino)-N-ethoxy-6-((5-(hydroxymethyl)pyridin-2-yl)amino)nicotinamide] | > 10 | > 10 |
| CCONC(=O)c1cnc(Nc2nc(C)cc(C)n2)cc1Nc1ccc(C2CC2)cc1N(C)S(C)(=O)=O [Example 123, 4-((4-cyclopropyl-2-(N-methylmethanesulfonamido)phenyl)amino)-6-((4,6-dimethylpyrimidin-2-yl)amino)-N-ethoxy nicotinamide] | > 10 | > 10 |
| CCONC(=O)c1cnc(Nc2ncccn2)cc1Nc1ccc(C2CC2)cc1N(C)S(C)(=O)=O [Example 124, 4-((4-cyclopropyl-2-(N-methylmethanesulfonamido)phenyl)amino)-N-ethoxy-6-(pyrimidin-2-ylamino)nicotinamide] | > 10 | > 10 |
| CCONC(=O)c1cnc(Nc2ccnn2C)cc1Nc1ccc(N2CCOCC2)cc1N(C)S(C)(=O)=O [Example 135] | > 10 | > 10 |
| CCONC(=O)c1cnc(Nc2ccn(C)n2)cc1Nc1ccc(N2CCOCC2)cc1N(C)S(C)(=O)=O [Example 137] | > 10 | > 10 |
| CCONC(=O)c1cnc(Nc2cnn(C)c2)cc1Nc1ccc(C2CC2)cc1N(C)S(C)(=O)=O [Example 140, 4-((4-cyclopropyl-2-(N-methylmethanesulfonamido)phenyl)amino)-N-ethoxy-6-((1-methyl-1H-pyrazol-4-yl)amino)nicotinamide] | > 10 | > 10 |
| CCONC(=O)c1cnc(Nc2cc(C)ccn2)cc1Nc1ccc(C2CC2)cc1N(C)S(C)(=O)=O [Example 147, 4-((4-cyclopropyl-2-(N-methylmethanesulfonamido)phenyl)amino)-N-ethoxy-6-((4-methylpyridin-2-yl)amino)nicotinamide] | > 10 | > 10 |
| CCONC(=O)c1cnc(Nc2ccc(C)nc2)cc1Nc1ccc(C2CC2)cc1N(C)S(C)(=O)=O [Example 148, 4-((4-cyclopropyl-2-(N-methylmethanesulfonamido)phenyl)amino)-N-ethoxy-6-((6-methylpyridin-3-yl)amino)nicotinamide] | > 10 | > 10 |
| CCONC(=O)c1cnc(Nc2cc(C)nc(C)n2)cc1Nc1cc(Cl)c(C2CC2)cc1N(C)S(C)(=O)=O [Example 149] | > 10 | > 10 |
| CCONC(=O)c1cnc(NC(=O)C2CC2)cc1Nc1cc(Cl)c(C2CC2)cc1N(C)S(C)(=O)=O [Example 150, 4-((5-chloro-4-cyclopropyl-2-(N-methylmethanesulfonamido)phenyl)amino)-6-(cyclopropylcarboxamido)-N-ethoxy nicotinamide] | > 10 | > 10 |
